# Results published in US9497963B2, “Methods and compositions for control of gypsy moth, Lymantria dispar” (Simon Fraser University, priority 2008, dated 2016).
# Entries after “also recorded” stand apart in the source; their conditions may differ.
# Columns and labels:
# [1] = test system: male gypsy moth antenna response to pheromone (+)-1; experiment: Decay of the long-term inhibitory effect and dose responses, EAG (Example 6); design: species or system Lymantria dispar; conditions: 100 ng; maximal value, on average
# Procedure: LTI dependence on the delay time of the pure (+)-1 puffs (v-vii, Example 6) after the mixed (+)-1/inhibitor puff. The amount of (+)-1 was varied from 10 ng to 1 μg and the amount of inhibitor was constant at 100 μg. FIG. 7B. Dose response of LTI with respect to variable (+)-1 responses and time responses for the strongest long-term inhibition of EAG responses towards (+)-1. FIG. 7C. Dose response of pure pheromone (+)-1. FIG. 7D.
# This recovery usually took 5-7 s. The short-term inhibition STI(compound, dose) was calculated for each mixed plume. The long-term inhibition LTI(dose, time) was calculated for each dose and for each of the three puffs following the mixed pheromone-inhibitor plume.
# L. dispar PBP 1 = experiment: Pheromone-binding protein (PBP) ligand binding assay, PBP1; design: species or system Lymantria dispar; conditions: tested as single compound; means ± S.E., 4 replicates
# Procedure: (§1) A. The protein and ligand are incubated in buffer overnight. B. For half of the incubation mixture, the free ligand (L) is separated from the protein-bound ligand (P.L) by size-exclusion chromatography on P2 Gel (BioRad, exclusion limit 2000 Da). The protein elutes from the small column bed, with its ligand bound (see Examples and […] et al. 2000; Staddon and Everton 1980), while the free ligand is retained on the column ([…] et al. 2000). C. […] The extract from the filtrate (B) contains the protein-bound ligand and the extract from the incubation mixture (A) contains all the ligand (bound and free) present in the aqueous phase. The extracts are analyzed by GC-MS, to obtain values for total ligand in solution (L+P.L) and for protein-bound ligand (P.L). These can then be used to calculate % bound (Table 3). These assays were performed as described in FIG. 3 and as follows: L. dispar PBP 1 or PBP 2 was incubated with the test compound or mini-library. The PBP and the ligand(s) (L) were left to equilibrate (eq 2) overnight. The non-bound ligand was then separated from the protein-bound material (PBP.L) by size-exclusion chromatography. By determining the total ligand in solution at equilibrium (eq. 3) and the protein-bound ligand, it is possible to estimate the percentage of ligand bound to the protein at equilibrium (eq. 4). […] This binding assay has been validated extensively in previous studies ([…] et al. 2000). The components of each mini-library separated cleanly by GC, so it was possible to monitor binding of individual components. PBP+L⇄PBP·L (eq. 2) [L]tot=[L]+[PBP·L] (eq. 3) % bound=100×[PBP·L]/[L]tot (eq. 4) Results: The members of each mini-library separated cleanly by GC, therefore it was possible to monitor binding of individual members to PBP1 or PBP2, the two known PBPs in the gypsy moth, by extraction from the aqueous incubation mixture, followed by GC analysis of the extract (FIG. 3).
# L. dispar PBP 2 = experiment: Pheromone-binding protein (PBP) ligand binding assay, PBP2; design: species or system Lymantria dispar; conditions: tested as single compound; means ± S.E., 4 replicates
# Procedure: as §1
# [2] = test system: third instar gypsy moth larvae; experiment: Feeding deterrence, oak leaf disc choice test (Example 13); assay type: in vivo, Lymantria dispar
# Procedure: Gypsy moth larvae were tested at the Canadian Forest Service, for feeding deterrence. A selected set of compounds, based on the results with the electroantennogram testing and also based on feeding deterrence assay results with the cabbage looper, T. ni. The experiment was done with third instar larvae and oak leaf discs. Larvae were left to choose between a treated and a control disc for 17.5 hours. Measurements of leaf areas were used to calculate the amount of leaf consumed from control (C) and treated (T) leaves. Feeding deterrence was calculated using the following formula: ((C−T)/(C+T))*100, and expressed in percent, where C=area of control leaf consumed and T=area of treated leaf consumed.
# [3] = test system: male gypsy moth antennae response to pheromone (+)-1 with plant odors; experiment: Effect on mixed pheromone/plant odorant stimulus, EAG (Example 8, second objective); design: species or system Lymantria dispar
# Procedure: A second objective for this experiment was to determine whether the oak volatiles, methyl eugenol and 1-hexanol, can enhance the antennal response to (+)-1 and whether the mixed pheromone/plant odorant stimulus can be inhibited by compound 3c{2,3} or DEET. The puff order was: i) air, ii) pure (+)-1 (100 ng), iii) (+)-1 (100 ng) and plant odorant (1 μg for methyl eugenol and 100 μg for 1-hexanol), iv) (+)-1 and plant odorant as in iii+antagonist (100 μg), v) same as in iii. Depolarizations were corrected for the air response as in Eq. 1 and the short-term effects were calculated for puff iii relative to puff ii, and for puff iv relative to puff ii. Long-term effects were calculated for puff v relative to puff iii (for LTI of the mixed pheromone/plant odorant plume) and for puff v relative to puff ii (to determine whether long-term effects of the plant odorant and of the antagonist cancel).
# [4] = test system: male gypsy moth antenna response to odorants other than (+)-1; experiment: Long-term inhibition of responses to other pheromone and host plant odorants, EAG (Example 8, first objective); design: species or system Lymantria dispar; conditions: for long-term activity (%) / short-term activity (%): antagonist 100 μg
# Procedure: To determine whether the long-term inhibitory effects of 3c{2,3} and DEET are specific to (+)-1 or also apply to other odorants, compound 3c{2,3} and DEET were tested further with other odorants: (−)-1, racemic 1, dispar alkene, methyl eugenol and 1-hexanol.
# These included (−)-1, racemic 1, dispar alkene (the alkene corresponding to the carbon framework of 1), methyl eugenol (a characteristic oak wood odorant) and 1-hexanol (a green leaf volatile, shown previously to be detected by gypsy moth antennae). For the pure odorant puffs, (−)-1 and racemic 1 were administered at 100 ng/cartridge, the alkene, methyl eugenol was administered at 1 μg/cartridge and 1-hexanol was administered at 100 μg/cartridge. The antagonists were both administered at 100 μg/cartridge, mixed with the appropriate dose of the odorant. The puff order was: i) air, ii) pure odorant, iii) odorant+antagonist, iv) pure odorant. All puffs were corrected for the air response as in Eq. 1. STI values were obtained from the depolarization […]. LTI values were obtained by comparing the depolarization of puff iv relative to that of puff ii.
# [5] = test system: male gypsy moth antenna response to pheromone (+)-1; experiment: EAG short-term (STI) and long-term (LTI) inhibition of pheromone signaling (Example 5); design: species or system Lymantria dispar; conditions: for Activity (%): long-term inhibition (LTI): pure (+)-1 100 ng plume following mixed plume with 100 μg compound
# Outline: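 Excised male gypsy moth antenna in saline pH 6.8 under purified air (300 mL/min); 0.3 s puffs: air, (+)-1 100 ng, (+)-1 plus compound 1, 10, 100 μg per cartridge, then (+)-1 alone. STI: mixed-puff air-corrected depolarization loss versus first pheromone puff; LTI: final pheromone-puff loss.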
# gypsy moths = experiment: Field test of trap catches, Northern Japan 2009 (Example 12); assay type: in vivo, Lymantria dispar; conditions: (+)-dis 40 μg/lure & compound 40 mg/lure, vs (+)-dis alone
# Procedure: Ten traps were used per treatment. The solvent used to deliver the compounds onto the lures was doubly distilled hexane. The hexane was evaporated prior to packing and shipping the lures. The field test was conducted in 10 replicates in Northern Japan. The test was conducted Aug. 16-18, 2009, in an area where gypsy moths are known to live. […] Traps were arranged randomized, placed on platforms. The experiment was conducted blind. The lures contained 40 μg disparlure/lure, a low dose for a field trial (typically 100 μg-1 mg are used). For each treatment, 10 traps were deployed.
# male gypsy moth antenna = experiment: Coupled gas chromatographic-electroantennographic detection (GC-EAD); design: species or system Lymantria dispar; conditions: EAD peak size and shape (sharp/broad)
# Outline: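 GC column effluent split between flame ionization detector and an excised male moth antenna held between saline-filled glass capillary electrodes, tip removed, in a warm air stream. Antennal potentials assigned to compounds by matching retention times with FID peaks.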
# [6] = third instar larvae, oak leaf discs, choice between treated and control disc for 17.5 hours, ((C−T)/(C+T))*100
# [7] = plant synergist 1-hexanol 100 μg
# [8] = plant synergist methyl eugenol 1 μg
# [9] = odorant racemic disparlure 100 ng
# [10] = mixed plume (+)-1 100 ng + compound 1 μg, negative = enhancement, mean ± S.E.
# [11] = mixed plume (+)-1 100 ng + compound 10 μg, negative = enhancement, mean ± S.E.
# [12] = mixed plume (+)-1 100 ng + compound 100 μg (puff v), negative = enhancement, mean ± S.E.
smiles,measurement,setting,value
"CCCCCCCCCC[C@@H]1O[C@@H]1CCCCC(C)C (relative stereo) [(+)-disparlure, cis-(7R,8S)-7,8-epoxy-2-methyloctadecane, reference compound]",depolarization with pure pheromone,[1],20 mV
same,PBP1 (% bound),L. dispar PBP 1,54 ± 16%
same,PBP2 (% bound),L. dispar PBP 2,71 ± 23%
"CCN(CC)C(=O)c1cccc(C)c1 [DEET, reference compound]",Feeding Deterrence (%),[2]; [6],47.76%
same,short-term effect with plant synergist + antagonist,[3]; (+)-1 100 ng + 1-hexanol 100 μg + antagonist 100 μg,−339 ± 206 (5)
same,short-term effect with plant synergist + antagonist,[3]; (+)-1 100 ng + methyl eugenol 1 μg + antagonist 100 μg,−210 ± 120 (5)
same,long-term effect on (+)-1 response,[3]; [7],−53 ± 48 (5)
same,long-term effect on the mixed (+)-1/plant odor plumes,[3]; [7],−24 ± 19 (5)
same,long-term effect on (+)-1 response,[3]; [8],27 ± 29 (5)
same,long-term effect on the mixed (+)-1/plant odor plumes,[3]; [8],30 ± 27 (5)
same,long-term activity (%),[4]; odorant 1-hexanol 100 μg,7 ± 18%
same,short-term activity (%),[4]; odorant 1-hexanol 100 μg,6 ± 30%
same,long-term activity (%),[4]; odorant (−)-disparlure 100 ng,−10 ± 29%
same,short-term activity (%),"[4]; odorant (−)-disparlure 100 ng, negative = enhancement",−322 ± 66%
same,long-term activity (%),[4]; odorant dispar alkene 1 μg,52 ± 22%
same,long-term activity (%),[4]; odorant methyl eugenol 1 μg,8 ± 8%
same,long-term activity (%),[4]; [9],−126 ± 133%
same,short-term activity (%),[4]; [9],−468 ± 231%
same,long-term inhibition (LTI) activity (in words),[5],strongest long-term inhibitors; also recorded: strong LTI activity
same,Activity (%): short-term inhibition (STI),[5]; [10],−165 ± 51 (5) %
same,Activity (%): short-term inhibition (STI),[5]; [11],−214 ± 48 (5) %
same,Activity (%): short-term inhibition (STI),[5]; [12],−203±42%
same,"inhibition of the recovery phase (RI, R^1 activity)",[5]; mixed puff with highest dose (puff v),9±9%
same,Activity (%): long-term inhibition (LTI),[5]; mean ± S.E.,78 ± 6 (5) %
same,trap catches in the field,gypsy moths,enhanced the trap catches significantly
C=CCc1ccc(OC)c(OC)c1 [Me eugenol],Feeding Deterrence (%),"[2]; foliar, 17.5 h",81.15%
same,GC-EAD activity,male gypsy moth antenna,None
same,EAG response to the pure odorant (in words),[4],same responses than clean air
same,"inhibition at 100 µg, 0.1 mg","[5]; Lymantria dispar, read-out: Activity (%): long-term inhibition (LTI), pure (+)-1 100 ng plume following mixed plume with 100 μg compound, mean ± S.E.",8 ± 11%
same,inhibition at 0.001 mg,"[5]; Lymantria dispar, read-out: Activity (%): short-term inhibition (STI), mixed plume (+)-1 100 ng + compound 1 μg, negative = enhancement, mean ± S.E.",-1 ± 13%
same,inhibition at 0.01 mg,"[5]; Lymantria dispar, read-out: Activity (%): short-term inhibition (STI), mixed plume (+)-1 100 ng + compound 10 μg, negative = enhancement, mean ± S.E.",76 ± 7%
same,inhibition at 0.1 mg,"[5]; Lymantria dispar, read-out: Activity (%): short-term inhibition (STI), mixed plume (+)-1 100 ng + compound 100 μg (puff v), negative = enhancement, mean ± S.E.",-152 ± 30%
same,trap catches in the field,gypsy moths,enhanced the trap catches significantly
C=CCc1ccc(OCCC)c(OC)c1 [Pr eugenol],Feeding Deterrence (%),[2]; [6],52.67%
same,GC-EAD activity,male gypsy moth antenna,None
same,Activity (%): short-term inhibition (STI),[5]; [10],18 ± 37 (6) %
same,Activity (%): short-term inhibition (STI),[5]; [11],39 ± 23 (6) %
same,Activity (%): short-term inhibition (STI),[5]; [12],−79 ± 25 (6) %
same,Activity (%): long-term inhibition (LTI),[5]; mean ± S.E.,7 ± 6 (6) %
